Measured values reported in patent US10143705B2, “Method of treating a patient with a disease caused by a pathogenic mechanism associated with accumlation of methylglyoxal” (priority 2015, dated 2018).

Assay: Inhibitory effect of monosaccharides against methylglyoxal in vitro
Details: concentration 0.05 M
Excerpt: The percentage inhibitory ratio of monosaccharide against methylglyoxal is 50% when the concentration of the monosaccharide is 0.05 M.
Foregoing exemplary embodiments of the present invention manifest that the low-molecular-weight chitosan has considerable effect to the carbonyl stress induced by the methylglyoxal both in vivo and in vitro. For an exemplary embodiment in vitro, the present invention employs buffer to simulate the same environmental status as human body by means of putting glucosamine and low-molecular-weight chitosan into buffer containing methylglyoxal to measure the bonding ratio thereof after 16 hours so that the half Inhibitory concentration associated with the affecting of low-molecular-weight chitosan to methylglyoxal can be obtained for further study on the examination of the binding conjugation of low-molecular-weight chitosan with methylglyoxal in vitro.

## NC1C(O)[C@H](O)C(CO)O[C@@H]1O (stereo partly shown) [monosaccharide, glucosamine]
  percentage inhibitory ratio against methylglyoxal: 50%
